Results as given in publication PMC8160210, “Single tryptophan Y160W mutant of homooligomeric E. coli purine nucleoside phosphorylase implies that dimers forming the hexamer are functionally not equivalent” (Scientific Reports, 2021).

T1: WT E. coli PNP (Escherichia coli, UniProt P0ABP8)
T1 construct: made in house
T1 sequence (P0ABP8 2-239 limits assumed): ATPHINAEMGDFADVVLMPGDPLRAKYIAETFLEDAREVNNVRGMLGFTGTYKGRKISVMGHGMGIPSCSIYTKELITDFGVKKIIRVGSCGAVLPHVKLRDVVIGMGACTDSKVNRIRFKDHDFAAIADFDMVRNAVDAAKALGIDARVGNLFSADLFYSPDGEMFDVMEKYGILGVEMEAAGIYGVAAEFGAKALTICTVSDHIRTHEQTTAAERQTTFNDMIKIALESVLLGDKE

B1: WT E. coli PNP (Escherichia coli K-12) (protein)
chain: T1 sequence (P0ABP8 2-239 limits assumed)
notes: made in house

Columns and labels:
WT E. coli PNP [1] = biological target: T1, WT E. coli PNP; set-up: method as in PMID 21672603; settings: pH 7.0, 50 mM Hepes, 25 °C, 50 mM phosphate; cited from earlier work
Y160W PNP mutant [2] = biological target: T2, Y160W PNP mutant (Escherichia coli, UniProt P0ABP8, Y161W); assay: Enzymatic specific activity, spectrophotometric assay; type: biochemical, E. coli; set-up: made in house; host or cells: E. coli DH5α-T1; settings: pH 7.0, 50 mM Hepes, 25 °C, 50 mM phosphate; for Enzymatic specific activity relative to WT: Y160W vs WT; for Enzymatic specific activity: Y160W
T2 sequence (P0ABP8 2-239 Y161W): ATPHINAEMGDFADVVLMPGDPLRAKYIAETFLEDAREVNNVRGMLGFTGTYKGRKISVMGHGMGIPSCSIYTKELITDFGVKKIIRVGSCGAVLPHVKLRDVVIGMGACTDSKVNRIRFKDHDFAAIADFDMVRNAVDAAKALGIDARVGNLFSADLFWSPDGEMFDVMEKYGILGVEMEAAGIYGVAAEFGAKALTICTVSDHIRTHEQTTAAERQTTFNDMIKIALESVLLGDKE
Protocol: (§1) All activity measurements and kinetic studies were done in 50 mM Hepes/HCl buffer pH 7.0 at 25 °C as previously described for the WT E. coli PNP and its active-site mutants, using direct spectrophotometric assay for adenosine, guanosine and 7-methylguanosine as substrates, and a coupled assay with xanthine oxidase in the case of inosine[13],[28],[29]. Activity measurements were performed for each protein sample, before and after each experiment as a control of the state of the protein.

WT E. coli PNP [3] = biological target: T1, WT E. coli PNP; assay: as above; type: biochemical; settings: WT PNP (reference = 100); pH 7.0, 50 mM Hepes, 25 °C, 50 mM phosphate
Protocol: as §1

WT E. coli PNP [4] = biological target: T1, WT E. coli PNP; assay: Kinetic studies with variable substrate; type: biochemical; settings: nucleoside as variable substrate, 50 mM phosphate, Michaelis–Menten, pH 7.0, 25 °C
Protocol: as §1
(§2) The classical Michaelis–Menten equation was fitted to the kinetic curves (i.e. initial rate of the reaction, v0, vs. initial substrate concentration, c0):1 v0c0=Vmax1c0/c0+KM1
(§3) Coefficients a and b express the degree of cooperation between the subunits in a dimer, while constants KM1 and Vmax1 characterize the active sites of the enzyme when the neighbouring site is free.
(§4) A more complex model was used if there was a statistically significant decrease in the residual sum of squares as judged by the F test at 95% confidence level.

Y160W PNP mutant [5] = biological target: T2, Y160W PNP mutant; settings: nucleoside as variable substrate, 50 mM phosphate, Michaelis–Menten, pH 7.0, 25 °C
Protocol: Activity measurements were performed for each protein sample, before and after each experiment as a control of the state of the protein.
as §2, §3, §4

WT E. coli PNP [6] = biological target: T1, WT E. coli PNP; set-up: method as in PMID 30337572; settings: m^7Guo as variable substrate, 50 mM phosphate, Michaelis–Menten; cited from earlier work
[7] = test system: Nc1nc2c(ncn2[C@@H]2O[C@H](CO)[C@@H](O)[C@H]2O)c(=O)[nH]1; assay: purified protein, by the assay type; settings: other: Y160W, nucleoside as variable substrate, 50 mM phosphate, Michaelis–Menten, pH 7.0, 25 °C
[8] = substrate: Nc1nc2c(ncn2[C@@H]2O[C@H](CO)[C@@H](O)[C@H]2O)c(=O)[nH]1; assay: Kinetic studies with variable substrate; type: biochemical, E. coli; settings: other: WT, nucleoside as variable substrate, 50 mM phosphate, Michaelis–Menten, pH 7.0, 25 °C
Protocol: as §1, §2, §3, §4

Molecule | Enzymatic specific activity (WT E. coli PNP [1]) [U/mg] | Enzymatic specific activity relative to WT (Y160W PNP mutant [2]) [%] | Enzymatic specific activity (Y160W PNP mutant [2]) [U/mg] | Enzymatic specific activity relative to WT (WT E. coli PNP [3]) [%] | other results
Nc1ncnc2c1ncn2[C@@H]1O[C@H](CO)[C@@H](O)[C@H]1O [Ado, Adenosine] | 58.5 ± 5.9 | 112 | 65.6 ± 14.2 | 100 | –
Nc1nc2c(ncn2[C@@H]2O[C@H](CO)[C@@H](O)[C@H]2O)c(=O)[nH]1 [Guo, Guanosine] | 60.4 ± 6.7 | 60 | 36.2 ± 2.0 | 100 | –
O=c1[nH]cnc2c1ncn2[C@@H]1O[C@H](CO)[C@@H](O)[C@H]1O [Ino, Inosine] | 103.2 ± 4.0 | 88 | 91.1 ± 8.9 | 100 | –
C[n+]1cn([C@@H]2O[C@H](CO)[C@@H](O)[C@H]2O)c2nc(N)[nH]c(=O)c21 [m^7Guo, 7-Methylguanosine] | 21.4 ± 1.6 | 108 | 23.2 ± 1.2 | 100 | Vmax (WT E. coli PNP [4]): 22.7 ± 0.3 U/mg; Km (Y160W PNP mutant [5]): 71.3 ± 3 µM; Vmax (Y160W PNP mutant [5]): 21 ± 1 U/mg; Km (WT E. coli PNP [6]): 27.2 µM
Y160W PNP mutant (Escherichia coli K-12; Y161W) | – | – | – | – | Km [7]: 128 ± 2 µM; Vmax [7]: 42.8 ± 0.3 U/mg
B1 | – | – | – | – | Km [8]: 28 ± 4 µM; Vmax [8]: 51.1 ± 2.3 U/mg
